Results: patent publication US10836742B2, “N-substituted bicyclic lactams, their preparation and their use as pharmaceuticals” (NEOMED Institute, priority 2015, dated 2020)

What was measured:
BRD4(BD1) = BRD4(BD1) (Homo sapiens (Human), UniProt O60885); assay: In vitro bromodomain inhibition assay (AlphaLISA, H4-tetraacetyl peptide); type: binding; details: His-tagged BRD4 BD1 200 nM, biotinylated H4-tetraacetyl peptide 200 nM
Protocol: a) In vitro Bromodomain Inhibition Assay
To measure activity of bromodomain inhibitors, a His-epitope tagged BRD4 BD149-170 is purchased from BPS Bioscience. BRD4 binding and inhibition is assessed by monitoring the engagement of biotinylated H4-tetraacetyl peptide (H4K5/8/12/16; AnaSpec #64989-025) with the target using the AlphaLISA technology (Perkin-Elmer). Specifically, in a 384 well OptiPlate, BRD4(BD1) (200 nM final) is pre-incubated with either DMSO (final 1.0% DMSO) or a compound dilution series in DMSO. All reagents are diluted in assay buffer containing 50 mM HEPES (pH 7.4), 100 mM NaCl, 0.1% (w/v) BSA, and 0.05% (w/v) CHAPS. After a 30 minute incubation at room temperature, H4 peptide is added (200 nM final) and the reaction is incubated an additional 30 minutes at room temperature. Alpha streptavidin donor beads and AlphaLISA nickel chelate acceptor beads are then added to a final concentration of 10 μg/mL each. After one hour, equilibration plates are read on an Envision instrument and IC50s calculated using a four parameter non-linear curve fit (results are shown in Table 2).

[1] = tested on: human C-Myc gene transcription in MV-4-11 cells; assay: Transcription of human C-Myc in human leukemic MV-4-11 cells (QuantiGene 2.0); type: cell-based; details: inhibition of C-Myc mRNA transcription, 4 hours treatment
Protocol: b) Transcription of Human C-Myc in Human Leukemic MV-4-11 Cells:
The effect of compounds on transcription of human C-Myc gene is monitored in human B-myelomonocytic leukemia cell line MV-4-11 (from American Type Culture Collection (ATCC), Manassas, Va., USA) using QuantiGene 2.0 assay kit (Affymetrix, Santa Clara, Calif., USA).
Typically, 8,000 MV-4-11 cells are plated in sterile 96-well plates (Costar #3598 from Fisher Scientific Canada, Ottawa, Ontario, Canada) in Iscove's medium supplemented with 10% fetal bovine serum, glutamine (2 mM), and penicillin (100 I.U.) and streptomycin (100 μg/mL) (all from Wisent Inc., St. Bruno, Quebec, Canada). Compounds are dissolved in DMSO at 30 mM. A series of 1:3 dilutions are first made in DMSO, and further 1:100 dilutions are made in serum-containing cell culture media. The final concentration of DMSO is 0.1% in cell culture media. After cells are treated with various concentrations of test compound for 4 hours, cells are lysed using Quantigene 2.0 sample processing kit (#QS0100). C-Myc mRNA is detected using a QuantiGene 2.0 assay kit (#QS0009) with gene-specific probe to human C-Myc (#SA-50182) following the manufacturer's recommendations. Luminescene signals are read on Flexstation II microplate reader (Molecular Devices, Sunnyvale, Calif., USA).

Row | SMILES | IC50 (BRD4(BD1)) [nM] | IC50 [1] [nM] | IC50 ([1]; Homo sapiens, MV4-11, 4 h) [nM]
1 | Cc1cc(-c2ccc3c(c2)N(C(C)c2ccccc2)C(=O)CC3)cn(C)c1=O (single isomer, unassigned) [Compound 12, 7-(1,5-dimethyl-6-oxo-3-pyridyl)-1-(1-phenylethyl)-3,4-dihydroquinolin-2-one] | 910 | 900 | –
2 | Cc1cc(-c2ccc3c(c2)N(C(C)c2ccccc2)C(=O)CC3)cn(C)c1=O (single isomer, unassigned) [Compound 13, 7-(1,5-dimethyl-6-oxo-3-pyridyl)-1-(1-phenylethyl)-3,4-dihydroquinolin-2-one] | 320 | 160 | –
3 | Cc1cc(-c2ccc3c(c2)N(CC2CCCCO2)C(=O)CC3)cn(C)c1=O (single isomer, unassigned) [Compound 15, 7-(1,5-dimethyl-6-oxo-3-pyridyl)-1-(tetrahydropyran-2-ylmethyl)-3,4-dihydroquinolin-2-one] | 1530 | 600 | –
4 | COc1cc2c(cc1-c1cc(C)c(=O)n(C)c1)CCC(=O)N2C(C)c1ccccc1 (stereo not shown) [Compound 2, 6-(1,5-dimethyl-6-oxo-3-pyridyl)-7-methoxy-1-(1-phenylethyl)-3,4-dihydroquinolin-2-one] | – | 830 | –
5 | COc1cc2c(cc1-c1cc(C)c(=O)n(C)c1)CCC(=O)N2C(C)c1ccccn1 (stereo not shown) [Compound 3, 6-(1,5-dimethyl-6-oxo-3-pyridyl)-7-methoxy-1-[1-(2-pyridyl)ethyl]-3,4-dihydroquinolin-2-one] | – | – | 900
6 | COc1cc2c(cc1-c1cc(C)c(=O)n(C)c1)CCC(=O)N2C(C)c1ccccn1 (stereo not shown) [Compound 4, 6-(1,5-dimethyl-6-oxo-3-pyridyl)-7-methoxy-1-[1-(2-pyridyl)ethyl]-3,4-dihydroquinolin-2-one] | – | 830 | –
7 | Cc1cc(-c2ccc3c(c2)CCC(=O)N3Cc2ccccc2)cn(C)c1=O [Compound 5, 1-benzyl-6-(1,5-dimethyl-6-oxo-3-pyridyl)-3,4-dihydroquinolin-2-one] | – | – | 840
8 | COc1cc(-c2cc(C)c(=O)n(C)c2)cc2c1N(Cc1ccccc1)C(=O)CC2 [Compound 6, 1-benzyl-6-(1,5-dimethyl-6-oxo-1,6-dihydropyridin-3-yl)-8-methoxy-3,4-dihydroquinolin-2(1H)-one] | 2580 | – | 780
9 | Cc1cc(-c2ccc3c(c2)N(CCOC(F)(F)F)C(=O)CC3)cn(C)c1=O [Compound 8, 7-(1,5-dimethyl-6-oxo-3-pyridyl)-1-[2-(trifluoromethoxy)ethyl]-3,4-dihydroquinolin-2-one] | 940 | – | 820
10 | Cc1cc(-c2ccc3c(c2)N(CC2CC(F)(F)C2)C(=O)CC3)cn(C)c1=O [Compound 11, 1-[(3,3-difluorocyclobutyl)methyl]-7-(1,5-dimethyl-6-oxo-3-pyridyl)-3,4-di hydroquinolin-2-one] | 860 | – | 870
11 | Cc1cc(-c2ccc3c(c2)N(Cc2ccccn2)C(=O)CO3)cn(C)c1=O [Compound 18, 6-(1,5-dimethyl-6-oxo-3-pyridyl)-4-(2-pyridylmethyl)-1,4-benzoxazin-3-one] | 580 | – | 860
12 | Cc1cc(-c2cc(C)c(=O)n(C)c2)cc2c1N(Cc1ccccc1)C(=O)CC2 [Compound 21, 1-Benzyl-6-(1,5-dimethyl-6-oxo-1,6-dihydropyridin-3-yl)-8-methyl-3,4-dihydroquinolin-2(1H)-one] | – | – | 810
13 | Cc1cc(-c2cc(Cl)c3c(c2)CCC(=O)N3Cc2ccccc2)cn(C)c1=O [Compound 22, 1-benzyl-8-chloro-6-(1,5-dimethyl-6-oxo-1,6-dihydropyridin-3-yl)-3,4-dihydroquinolin-2(1H)-one] | – | – | 840

Further molecules by falling IC50 ([1]; Homo sapiens, MV4-11, 4 h), results first:

Row | IC50 (BRD4(BD1)) [nM] | IC50 [1] [nM] | IC50 ([1]; Homo sapiens, MV4-11, 4 h) [nM] | SMILES
14 | 810 | – | 750 | Cc1cc(-c2ccc3c(c2)N(CC2CC(F)(F)C2)C(=O)CO3)cn(C)c1=O [Compound 19, 4-[(3,3-difluorocyclobutyl)methyl]-6-(1,5-dimethyl-6-oxo-3-pyridyl)-1,4-benzoxazin-3-one]
15 | 1580 | – | 600 | Cc1cc(-c2ccc3c(c2)OCC(=O)N3Cc2ccccc2)cn(C)c1=O [Compound 16, 4-benzyl-7-(1,5-dimethyl-6-oxo-3-pyridyl)-1,4-benzoxazin-3-one]
16 | 3670 | – | 590 | Cc1cc(-c2ccc3c(c2)N(CC2CCCCO2)C(=O)CC3)cn(C)c1=O (single isomer, unassigned) [Compound 14, 7-(1,5-dimethyl-6-oxo-3-pyridyl)-1-(tetrahydropyran-2-ylmethyl)-3,4-dihydroquinolin-2-one]
17 | 700 | – | 570 | Cc1cc(-c2ccc3c(c2)N(Cc2ccc(F)cc2)C(=O)CC3)cn(C)c1=O [Compound 9, 7-(1,5-dimethyl-6-oxo-3-pyridyl)-1-[(4-fluorophenyl)methyl]-3,4-dihydro-quinolin-2-one]
18 | – | – | 550 | COc1cc2c(cc1-c1cc(C)c(=O)n(C)c1)CCC(=O)N2C(C)c1ccccc1 (stereo not shown) [Compound 1, 6-(1,5-dimethyl-6-oxo-3-pyridyl)-7-methoxy-1-(1-phenylethyl)-3,4-dihydroquinolin-2-one]
19 | 420 | – | 540 | Cc1cc(-c2ccc3c(c2)N(Cc2ccccn2)C(=O)CC3)cn(C)c1=O [Compound 10, 7-(1,5-dimethyl-6-oxo-3-pyridyl)-1-(2-pyridylmethyl)-3,4-dihydroquinolin-2-one]
20 | 880 | – | 500 | Cc1cc(-c2ccc3c(c2)N(CCOC(F)(F)F)C(=O)CO3)cn(C)c1=O [Compound 20, 6-(1,5-dimethyl-6-oxo-3-pyridyl)-4-[2-(trifluoromethoxy)ethyl]-1,4-benzoxazin-3-one]
21 | 740 | – | 260 | Cc1cc(-c2ccc3c(c2)N(Cc2ccccc2)C(=O)CC3)cn(C)c1=O [Compound 7, 1-benzyl-7-(1,5-dimethyl-6-oxo-3-pyridyl)-3,4-dihydroquinolin-2-one]
22 | 460 | – | 96 | Cc1cc(-c2ccc3c(c2)N(Cc2ccccc2)C(=O)CO3)cn(C)c1=O [Compound 17, 4-benzyl-6-(1,5-dimethyl-6-oxo-3-pyridyl)-1,4-benzoxazin-3-one]
